Data as given in US9206245B2, “Immunogenic peptides and methods of use for treating and preventing cancer” (The United States of America, as represented by the …, priority 2005, dated 2015).
Where no end group is shown, it is not given here.

Tests used:
C1R-B7 target cells = assay: 4 h 51Cr release assay, RS10-specific human CTL line against peptide pulsed C1R-B7 target cells; assay type: cell-based; conditions: peptide pulsed at 10 μM, various E:T ratios, versus control peptide
Experimental: In particular, specific cytotoxic activities are determined in a standard 4 h ^51Cr release assay at various effector:target (E:T) ratios. Briefly, graded doses of viable effector cells are plated in triplicate in 96-well U-bottom culture plates (Corning Glass, Corning, N.Y.) and co-cultured for 4 h with sodium chromate-labeled (100 μCi; NEN, Boston, Mass.) peptide pulsed (10 μM) C1R-B7 target cells. In some experiments, the Rh5, RD and CTR tumor cell lines are used as a target. Supernatants are collected, radioactivity measured, and specific lysis is calculated according to the equation: percentage of specific cytotoxicity=(experimental cpm−spontaneous cpm)/(maximum cpm−spontaneous cpm)×100. Maximum ^51Cr release is determined from supernatants of lysed target cells incubated with Triton X-100 (5% v/v). Spontaneous release is determined from target cells incubated without added effector cells.

HLA-B7 = target: T1, HLA-B7 (Homo sapiens, UniProt P01889); assay: T2-B7 binding assay: stabilization of HLA-B7 molecules on the surface of T2-B7 cells, flow cytometry; conditions: for binding affinity for HLA-B7 compared with natural RS10 peptide: FIGS. 4 and 6; for EC50: FIGS. 4 and 6, read-out: concentration required for a 50% increase in HLA-B7 expression
T1 construct: transfected with the HLA-B7 gene; expressed in transfected cells; host or cells: T2 (TAP1/TAP2-deficient hybrid B and T lymphoblastoid cell line) transfected with the HLA-B7 gene (T2.B7, gift of Peter Cresswell)
T1 sequence (P01889 25-362): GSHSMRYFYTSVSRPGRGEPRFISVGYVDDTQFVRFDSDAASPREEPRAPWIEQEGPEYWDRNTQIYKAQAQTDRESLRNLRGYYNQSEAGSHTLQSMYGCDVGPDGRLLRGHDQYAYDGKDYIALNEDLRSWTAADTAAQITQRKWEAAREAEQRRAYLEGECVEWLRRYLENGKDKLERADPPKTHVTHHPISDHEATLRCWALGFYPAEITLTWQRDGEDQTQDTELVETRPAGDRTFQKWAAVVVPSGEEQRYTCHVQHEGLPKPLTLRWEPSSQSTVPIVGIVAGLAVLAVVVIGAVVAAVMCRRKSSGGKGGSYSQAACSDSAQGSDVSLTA
T1 sequence (P61769 21-119 partner): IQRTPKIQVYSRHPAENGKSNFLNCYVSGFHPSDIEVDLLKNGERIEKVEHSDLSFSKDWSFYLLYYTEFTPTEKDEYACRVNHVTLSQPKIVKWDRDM
Experimental: A chromosomal translocation-generated fusion protein breakpoint peptide, RS10 (SPQNSIRHNL), is selected on the basis of predicted potential binding to HLA-B7 (Rammensee et al., Immunogenetics 41: 178-228 (1995)). Peptide binding to HLA-B7 is assessed by using stabilization of HLA-B7 molecules on the surface of T2-B7 cells that lack the TAP transporter and therefore express only short-lived empty HLA-B7 molecules unless a peptide is present that can bind and stabilize them. These assays are described in (Stuber et al., Eur. J. Immunol., 22, 2697-2703 (1992), Nijman et al., Eur. J. Immunol., 23, 1215-1219 (1993), Zeh et al., Hum. Immunol., 39, 79-86 (1994), and Smith et al., Internat. Immunol., 9, 1085-1093 (1997)). Cells of the TAP1/TAP2-deficient T2 cell line (Salter et al., Immunogenetics, 21, 235-246 (1985), and Spies et al., Nature, 351, 323-324 (1991)) transfected with the HLA-B7 gene are suspended in culture medium containing heat inactivated FCS (2.5% v/v) and added to 96-well round-bottomed plates at 2×10^5 cells/well. Human β2-microglobulin (Sigma Chemical Co.) is also added at 20 μg/well. Where appropriate, peptide is added to the desired concentration. The cells are then incubated overnight at 37° C. in 5% CO2, followed by washing with PBS containing NaN3 (0.5% w/v and FCS 2% v/v). Next, cells are incubated on ice for 30 min in the presence of primary anti-HLA-B7 specific antibody (BB7.1 hybridoma culture supernatant; ATCC), followed by washing and incubation for 30 min in goat anti-mouse immunoglobulin FITC (Becton Dickinson). Analysis is performed by flow cytometry.
Conventional mAb staining is conducted in PBS containing 0.01% sodium azide on ice. Cells are labeled with FITC- or PE-conjugated mAbs obtained from BD PharMingen (San Diego, Calif.). For each staining of interest, the appropriate isotype-matched control is included. All reagents are used at optimal concentration as determined experimentally. Flow cytometric analysis is performed with a FACScan (BD Biosciences, Mountain View, Calif.). Data are collected on 5000-10,000 viable cell events and analyzed with CellQuest software.

SPANSIRHNL [RS10-3A, SPANSIRHNL]
CTL lysis of peptide pulsed C1R-B7 target cells (C1R-B7 target cells): specific killing observed | binding affinity for HLA-B7 compared with natural RS10 peptide (HLA-B7): higher binding affinity for HLA-B7 than the natural RS10 peptide | EC50 (HLA-B7): ~0.05 µM

SPQNAIRHNL [RS10-5A]
binding affinity for HLA-B7 compared with natural RS10 peptide (HLA-B7): higher binding affinity for HLA-B7 than the natural RS10 peptide

SPQNSARHNL [RS10-6A]
binding affinity for HLA-B7 compared with natural RS10 peptide (HLA-B7): higher binding affinity for HLA-B7 than the natural RS10 peptide

SPQNSIRHNL [RS10, SPQNSIRHNL]
EC50 (HLA-B7): ~0.3 µM
